Each structure is given as a SMILES string.

What all share (settings): stereoisomer not certain
The nature of data set [1]: RP, Thermo Scientific Hypercarb, 150 × 2.1 mm, 5 µm, 0.1 mL/min, estimated dead time 3.3 min; A: water + 0.1% formic acid, pH 3; B: methanol + 0.1% formic acid, pH 3; gradient (min/%B) 0/5 5/5 20/100 35/100 35.1/5 45/5.
Data set [2] can be described thus: RP, Waters ACQUITY UPLC BEH C18, 100 × 2.1 mm, 1.7 µm, 0.2 mL/min, estimated dead time 1.1 min; A: water + 0.025% formic acid + 20 mM ammonium acetate + 0.055% ammonium hydroxide, pH 7; B: methanol; gradient (min/%B) 0/5 5/5 25/100 30/100 30.1/5 35/5.
The nature of data set [3]: HILIC, Merck SeQuant ZIC-HILIC, 150 × 2.1 mm, 5 µm, 0.75 mL/min, estimated dead time 0.44 min; A: water + 0.1% acetic acid + 10 mM ammonium acetate, pH 4; B: 5% water + 95% acetonitrile + 0.1% acetic acid + 10 mM ammonium acetate, pH 4; gradient (min/%B) 0/95 5/95 20/57 25/57 30/95 40/95.
Data set [4] in a line: RP, Waters ACQUITY UPLC BEH C18, 100 × 2.1 mm, 1.7 µm, 0.1 mL/min, estimated dead time 2.2 min; A: water + 0.1% formic acid, pH 3; B: methanol + 0.1% formic acid, pH 3; gradient (min/%B) 0/5 5/5 25/100 30/100 30.1/5 35/5.
Data set [5] is described as follows: RP, Waters CORTECS T3, 100 × 2.1 mm, 2.7 µm, 0.3 mL/min, estimated dead time 0.73 min; A: water + 0.1% formic acid, pH 3; B: methanol + 0.1% formic acid, pH 3; gradient (min/%B) 0/0 5/0 25/100 30/100 30.1/0 35/0.
Data set [6] is described as follows: RP, Waters CORTECS T3, 100 × 2.1 mm, 2.7 µm, 0.15 mL/min, estimated dead time 1.5 min; A: water + 0.1% formic acid, pH 3; B: methanol + 0.1% formic acid, pH 3; gradient (min/%B) 0/0 1/0 6/5 30/100 35/100 35.1/0 40/0.
Data set [7] is described as follows: RP, Waters CORTECS T3, 100 × 2.1 mm, 2.7 µm, 0.3 mL/min, estimated dead time 0.73 min; A: water + 0.1% formic acid, pH 3; B: methanol + 0.1% formic acid, pH 3; gradient (min/%B) 0/0 1/0 6/5 30/100 35/100 35.1/0 40/0.
Data set [8] is described as follows: RP, Waters CORTECS T3, 100 × 2.1 mm, 2.7 µm, 0.25 mL/min, estimated dead time 0.88 min; A: water + 0.1% formic acid, pH 3; B: methanol + 0.1% formic acid, pH 3; gradient (min/%B) 0/0 1/0 6/5 30/100 35/100 35.1/0 40/0.
The nature of data set [9]: RP, Waters CORTECS T3, 100 × 2.1 mm, 2.7 µm, 0.3 mL/min, estimated dead time 0.73 min; A: water + 0.1% formic acid, pH 3; B: methanol + 0.1% formic acid, pH 3; gradient (min/%B) 0/5 5/5 25/100 30/100 30.1/5 35/5.
Data set [10] can be described thus: RP, Waters ACQUITY UPLC BEH C18, 100 × 2.1 mm, 1.7 µm, 0.1 mL/min, estimated dead time 2.2 min; A: water + 0.045% formic acid + 0.11% ammonium hydroxide, pH 7; B: methanol; gradient (min/%B) 0/5 5/5 25/95 25.1/100 35/100 35.1/5 45/5.
Data set [11] is described as follows: RP, Waters CORTECS T3, 100 × 2.1 mm, 2.7 µm, 0.2 mL/min, estimated dead time 1.1 min; A: water + 0.045% formic acid + 0.11% ammonium hydroxide, pH 7; B: methanol; gradient (min/%B) 0/5 5/5 25/95 25.1/100 35/100 35.1/5 45/5.
Data set [12] in a line: RP, Waters CORTECS T3, 100 × 2.1 mm, 2.7 µm, 0.2 mL/min, estimated dead time 1.1 min; A: water + 0.1% formic acid, pH 3; B: methanol + 0.1% formic acid, pH 3; gradient (min/%B) 0/5 5/5 25/95 25.1/100 35/100 35.1/5 45/5.
Data set [13] in a line: RP, Waters CORTECS T3, 100 × 2.1 mm, 2.7 µm, 0.2 mL/min, estimated dead time 1.1 min; A: water + 0.1% formic acid, pH 3; B: methanol + 0.1% formic acid, pH 3; gradient (min/%B) 0/0 1/0 6/5 30/100 35/100 35.1/0 40/0.
A short description of data set [14]: RP, Waters CORTECS T3, 100 × 2.1 mm, 2.7 µm, 0.3 mL/min, estimated dead time 0.73 min; A: water + 0.1% formic acid, pH 3; B: methanol + 0.1% formic acid, pH 3; gradient (min/%B) 0/5 5/5 25/95 25.1/100 35/100 35.1/5 45/5.

As to `NC1(C(=O)O)CC1` [1-AMINOCYCLOPROPANE-1-CARBOXYLATE], in data set [1], the LC retention time was 4.48 min.

For `C[n+]1cccc(C(N)=O)c1` [1-METHYLNICOTINAMIDE], the LC retention time in data set [1] was 4.94 min; in [2], 1.35 min.

`O=C(O)CCCC(=O)C(=O)O` [2-OXOADIPATE]: the LC retention time in data set [3] is 12.9 min.

With `OCC(O)c1ccc(O)c(O)c1` (stereo unspecified) [3,4-DIHYDROXYPHENYL GLYCOL], the LC retention time in data set [3] is 4.12 min.

Regarding `Nc1c(O)cccc1C(=O)CC(N)C(=O)O` (stereo unspecified) [3-HYDROXYKYNURENINE], the LC retention time in [4] was 2.83 min.

Regarding `NC(N)=NCCCC(=O)O` [4-GUANIDINOBUTANOATE], the LC retention time in [1] was 13 min; in data set [5], 0.91 min; in [6], 1.8 min; in [4], 2.71 min; in data set [7], 0.9 min; in data set [2] it was 1.39 min. The LC retention time in [8] was 1.06 min.

Regarding `O=C1CCNC(=O)N1` [5,6-DIHYDROURACIL], the LC retention time in data set [4] is 2.76 min.

`N[C@@H](Cc1c[nH]c2ccc(O)cc12)C(=O)O` [5-HYDROXY-L-TRYPTOPHAN]: the LC retention time in data set [9] was 2.7 min.

As to `NCCCNCCCN` [BIS(3-AMINOPROPYL)AMINE], the LC retention time in data set [1] was 41 min.

For `C[N+](C)(C)CCO` [CHOLINE], the LC retention time in data set [2] is 1.35 min.

For `COC1=C(OC)C(=O)C(CC=C(C)CCC=C(C)CCC=C(C)CCC=C(C)CCC=C(C)CCC=C(C)CCC=C(C)CCC=C(C)CCC=C(C)CCC=C(C)C)=C(C)C1=O` [COENZYME Q10], the LC retention time in data set [10] was 37.8 min.

As to `CN(CC(=O)O)C(=N)N` [CREATINE], in data set [2], the LC retention time is 1.35 min.

Consider `CN1CC(=O)NC1=N` [CREATININE], for which the LC retention time was 4.94 min in [1], 1.39 min in [2] and 1.06 min in [8].

For `Nc1ccnc(=O)[nH]1` [CYTOSINE], the LC retention time in data set [1] is 13.9 min; in [7] it was 0.9 min; in data set [2], 1.44 min; in [8], 1.06 min.

For the compound `OCCNCCO` [DIETHANOLAMINE], in data set [2], the LC retention time is 1.35 min.

With `O=C(O)C(O)c1ccc(O)c(O)c1` (stereo unspecified) [DIHYDROXYMANDELIC ACID], the LC retention time in data set [3] was 4.4 min.

Turning to `NC(N)=NCC(=O)O` [GUANIDINOACETATE], the LC retention time in data set [1] was 5.04 min.

Take `O=C(O)CNC(=O)c1ccccc1` [HIPPURATE]: the LC retention time in data set [4] was 14.1 min.

For `NC(CCS)C(=O)O` (stereo unspecified) [HOMOCYSTEINE], the LC retention time in data set [1] is 14 min.

With `NC(N)=NCCC[C@H](N)C(=O)O` [L-ARGININE], the LC retention time in data set [1] is 4.77 min.

Consider `N[C@@H](CCSC[C@H](N)C(=O)O)C(=O)O` [L-CYSTATHIONINE], for which the LC retention time in data set [1] is 4.86 min.

As to `N[C@@H](CSSC[C@H](N)C(=O)O)C(=O)O` [L-CYSTINE], the LC retention time in [1] is 4.99 min.

For `CS(=N)(=O)CCC(N)C(=O)O` [L-METHIONINE SULFOXIMINE], in [1], the LC retention time was 4.77 min.

On to `CC(C)=CCCC(C)C1CCC2(C)C3=C(CCC12C)C1(C)CCC(O)C(C)(C)C1CC3` (stereo unspecified) [LANOSTEROL], for which the LC retention time in data set [2] was 26.4 min.

Turning to `NC(=O)CCCCC1CCSS1` (stereo unspecified) [LIPOAMIDE], the results for the LC retention time in data set [10] and in data set [11] were 20 min and 16 min, respectively.

With `NC(CCCC(N)C(=O)O)C(=O)O` (stereo unspecified) [LL-2,6-DIAMINOHEPTANEDIOATE], the LC retention time in data set [1] is 4.49 min; in data set [12], 2.41 min.

With `CC(C)=CCCC(C)=CCCC(C)=CCCC(C)=CCC1=C(C)C(=O)c2ccccc2C1=O` [MENAQUINONE], the LC retention time in [10] is 34.6 min.

As for `CN=C(N)N` [METHYLGUANIDINE], the LC retention time in [1] is 4.05 min; in data set [2], 1.39 min; in data set [8], 1.06 min.

Regarding `Cn1cncc1CC(N)C(=O)O` [N(PAI)-METHYL-L-HISTIDINE], the LC retention time in data set [1] was 4.77 min; in data set [2] it was 1.88 min.

As for `CC(=O)NC1C(O)CC(O)(C(=O)O)OC1C(O)C(O)CO` (stereo unspecified) [N-ACETYLNEURAMINATE], the LC retention time in data set [3] was 12.9 min.

On to `CC(=O)NCCCCN` [N-ACETYLPUTRESCINE], for which the LC retention time in data set [6] was 1.8 min; in data set [4], 2.71 min; in data set [2] it was 1.39 min.

As to `NC(=O)c1ccc[n+](C2OC(COP(=O)([O-])O)C(O)C2O)c1` (stereo unspecified) [NICOTINAMIDE MONONUCLEOTIDE], the LC retention time in data set [1] was 26.7 min; in data set [4] it was 2.69 min.

Turning to `N[C@@H](CCOC(=O)CCC(=O)O)C(=O)O` [O-SUCCINYL-L-HOMOSERINE], the LC retention time was 16.2 min in [1]; 0.93 min in [5]; 1.34 min in [13]; 1.83 min in [6]; 2.74 min in data set [4]; 0.9 min in data set [14]. The LC retention time was 0.92 min in data set [7] and 1.09 min in [8].

As for `CCCCCCCCCCCCCCCC(=O)O` [PALMITATE], the LC retention time in [10] is 36.8 min; in data set [12], 33.8 min.

For `CCCCCCC=CCCCCCCCC(=O)O` [PALMITOLEIC ACID], the LC retention time in data set [10] was 29.4 min.

Take `NCCc1ccccc1` [PHENETHYLAMINE]: the LC retention time in data set [10] was 20.4 min.

In the case of `N[C@@H](CSCC(=O)O)C(=O)O` [S-CARBOXYMETHYL-L-CYSTEINE], in data set [1], the LC retention time was 14.8 min.

With `C[Se]CCC(N)C(=O)O` (stereo unspecified) [SELENOMETHIONINE], the LC retention time in data set [4] is 4.52 min.

On to `NCCCCNCCCN` [SPERMIDINE], for which the LC retention time in data set [1] is 41 min.

Turning to `CCCCCCCCC=CCCCCCCCC(=O)NC(COP(=O)([O-])OCC[N+](C)(C)C)C(O)C=CCCCCCCCCCCCCC` (stereo unspecified) [SPHINGOMYELIN (d36:2)], the LC retention time in data set [10] is 37.5 min; in data set [11], 28.7 min.

On to `Cc1ncc(C[n+]2csc(CCOP(=O)(O)O)c2C)c(N)n1` [THIAMINE MONOPHOSPHATE], for which the LC retention time in data set [1] was 18 min; in data set [10], 3.87 min; in data set [5], 0.89 min; in data set [6] it was 1.78 min; in data set [2], 1.42 min.

With `Cc1ncc(C[n+]2csc(CCO)c2C)c(N)n1` [THIAMINE], the LC retention time was 19.1 min in data set [1], 0.89 min in data set [5], 1.78 min in [6] and 3.78 min in data set [2].

`C=C1CCC(O)CC1=CC=C1CCCC2(C)C1CCC2C(C)C=CC(C)C(C)C` (stereo unspecified) [VITAMIN D2]: in [10], the LC retention time was 33.6 min.

As for `O=c1[nH]c(=O)c2ncn(C3OC(CO)C(O)C3O)c2[nH]1` (stereo unspecified) [XANTHOSINE], the LC retention time is 11.9 min in [12] and 11.6 min in data set [3].

(Values after the RepoRT retention time repository (doi:10.1016/j.jchromb.2020.122105).)
